Assays:
[1] = body weight in bleomycin-injected mice; assay type: in vivo, female C3H/HeJ inbred mice (Mus musculus); settings: Group 4: bleomycin plus DEX 1 mg/kg IP BID; differences among groups at sacrifice not significant (P>0.05)
Procedure: Dermal fibrosis was induced locally by six weeks of once-daily subcutaneous injections of bleomycin (0.1 U in 0.1 mL) into a defined area on the back of each mouse. Test and control articles were administered by twice-daily intraperitoneal injection starting from Day 14 (i.e., two weeks after the initiation of bleomycin injection). For mice of Groups 1-4, test/control article were administered (BID, IP) for four weeks, starting from Day 14 (i.e., two weeks after the initial bleomycin injection) administration was performed twice daily. Group 1 received negative control article (PBS) at 200 μL/mouse. Groups 2 and 3 received low- and high-dose test article dosing solutions (0.05 and 0.5 mg/mL Compound A) at doses of 0.5 and 5 mg/kg, respectively. Group 4 received DEX dosing solution (1 mg/mL) at doses of 1 mg/kg. For animals of Groups 2-4, doses were administered at dose volumes of 10 mL/kg, and dose volumes for individual animals were recalculated once weekly based on the most recent body weights. Animals were administered bleomycin and test and control articles in two cohorts, with dosing staggered by one day. Cohort A was composed of the first five animals in each group [x01-x05, where x denoted the study group number (1, 2, 3, or 4)]. Cohort B was composed of the remaining animals (x06-x10). […]

[2] = system: bleomycin-induced dermal fibrosis; experiment: murine model of bleomycin-induced dermal fibrosis (histopathology scores); assay type: in vivo, female C3H/HeJ inbred mice (Mus musculus)
Excerpt: The objective of this study was to assess the effects of the test article Compound A, an alpha helix mimetic β-catenin inhibitor compound, in a murine model of bleomycin-induced dermal fibrosis. Compound A is 4-(((6S,9S,9aS)-1-(benzylcarbamoyl)-2,9-dimethyl-4,7-dioxo-8-(quinolin-8-ylmethyl)octahydro-1H-pyrazino[2,1-c][1,2,4]triazin-6-yl)methyl)phenyl dihydrogen phosphate. Negative and positive control articles were phosphate buffered saline (PBS) and dexamethasone (DEX, a known treatment for scleroderma), respectively.
The high-dose (0.5 mg/mL) dosing solution of test article was prepared by mixing 4 mL of test article (stock solution at […]) with 36 mL of PBS. The low-dose (0.05 mg/mL) dosing solution was prepared by mixing 4 mL of the high-dose test article dosing solution (0.5 mg/mL) with 36 mL of PBS. The DEX dosing solution (1 mg/mL) was prepared by mixing 1 mL of the DEX stock solution (3 mg/mL) with 2 mL of PBS. The test and positive control articles were prepared once weekly, aliquoted and stored at 4° C. protected from light.
Forty-five female C3H/HeJ inbred mice (Mus musculus) at ages of approximately 6 weeks were obtained from Jackson Laboratory (Bar Harbor, Me.) for use in the study. Mice were selected for the study since these animals are an accepted species frequently used in pre-clinical evaluation of drugs intended for human use.
Dermal fibrosis was induced locally by six weeks of once-daily subcutaneous injections of bleomycin (0.1 U in 0.1 mL) into a defined area on the back of each mouse. Test and control articles were administered by twice-daily intraperitoneal injection starting from Day 14 (i.e., two weeks after the initiation of bleomycin injection). For mice of Groups 1-4, test/control article were administered (BID, IP) for four weeks, starting from Day 14 (i.e., two weeks after the initial bleomycin injection) administration was performed twice daily. Group 1 received negative control article (PBS) at 200 μL/mouse. Groups 2 and 3 received low- and high-dose test article dosing solutions (0.05 and 0.5 mg/mL Compound A) at doses of 0.5 and 5 mg/kg, respectively. Group 4 received DEX dosing solution (1 mg/mL) at doses of 1 mg/kg. […]
Mice were euthanized on Day 42, i.e., following six weeks of bleomycin injection and four weeks of test/control article treatment. A full gross necropsy was performed on each mouse, and any macroscopic abnormality was recorded. […]
Formalin-fixed skin and lung tissues from each mouse were processed for histopathology. […] Slides were evaluated for dermal fibrosis and dermal inflammation. […] Dermal fibrosis and inflammation were scored using the industry standard 5-point scoring system as follows: 0=no significant changes; 1=trace to minimal severity; 2=mild severity; 3=moderate severity; 4=marked severity. […]

C[C@@H]1C[C@H]2[C@@H]3CCC4=CC(=O)C=C[C@]4(C)[C@@]3(F)[C@@H](O)C[C@]2(C)[C@@]1(O)C(=O)CO [DEX, dexamethasone]
decrease in mean body weight [1]: largest decrease

C[C@H]1[C@H]2N(C(=O)CN(C)N2C(=O)NCc2ccccc2)[C@@H](Cc2ccc(OP(=O)(O)O)cc2)C(=O)N1Cc1cccc2cccnc12 [Compound A, 4-(((6S,9S,9aS)-1-(benzylcarbamoyl)-2,9-dimethyl-4,7-dioxo-8-(quinolin-8-ylmethyl)octahydro-1H-pyrazino[2,1-c][1,2,4]triazin-6-yl)methyl)phenyl dihydrogen phosphate]
dermal sclerosis scores vs vehicle-treated mice (FIG. 1) ([2]; Compound A at either dose (0.5 and 5 mg/kg IP BID Days 14-41), Day 42, P<0.01): significant decrease | dermal fibrosis (summary) ([2]; bleomycin-injected mice, treatment IP BID Days 14-41): ameliorated | dermal inflammation scores ([2]; bleomycin-injected mice, Compound A 0.5 and 5 mg/kg IP BID Days 14-41, Day 42 histopathology, 0-4 score): did not significantly affect | amount of dermal fibrosis (qualitative histopathology) ([2]; both test article-treated groups (0.5 and 5 mg/kg IP BID), Day 42): mildly reduce
